{
  "source": "patent EP2939983A1",
  "about": "“Titanium dioxide-catalysed oxidation method” (Sistiana Inversiones S.L., priority 2014, dated 2015)",
  "key": {"[1]": {"experiment": "Rhodamine B degradation kinetics with TiO2 catalyst, H2O2 and acid in the absence of light", "text": "The walls of a beaker (Ǿ = 10 cm) were covered with aluminum foil to prevent any light exposure to the inside. A magnetic stirrer was introduced in a smaller beaker (Ǿ = 6.5 cm), which was then covered on the top with parafilm and a small hole was punched thereon. The smaller beaker was introduced concentrically into the larger one. To immobilize the inner beaker, a foam was placed between the walls of the two vessels. A cover of the same foam (Ǿ = 10 cm, 1.5 cm thick) was placed on the top of the larger beaker. In the cover, a hole (Ǿ = 0.5 cm) close to the inside wall of the inner beaker facilitated sample collection in the vortex formed during the agitation of the reaction mixture. A second hole situated on the opposite side of the first one was punched in order to facilitate pH measurements.\nThe catalytic reactor was placed on the stirrer (VMS-C4, VWR) at around 750 rpm. Then, the inner beaker was filled with the help of a funnel with the required amount of TiO2. Immediately afterwards, the appropriate amount of 9.8 M H2O2 and deionised water, in each case, for a total volume of 20 mL, was introduced. The mixture was stirred for 1 minute, and 20 mL of the required concentration of Rhodamine B were then added. In the cases where an acid was employed, the corresponding amount of acid to achieve a particular pH was introduced in the reaction mixture before the addition of Rhodamine B. After 3 minutes stirring, an aliquot of 1 mL was taken through a plastic Pasteur pipette and was introduced in an Eppendorf tube (1.5 mL). The sample was centrifugated (Mikro 120, Hettich Zentrifugen) at 14000 rpm for 1 minute. The supernatant was centrifugated again under the same conditions and the remaining supernatant was placed in a 1.5 mL cuvette for analysis in a spectrophotometer (Du 730, Beckman Coulter). […] Finally, the TiO2 and the liquid were reintroduced into the inner beaker. The procedure, starting with the 1 mL aliquot extraction, was repeated (at least) every 3 min for a maximum of 2 h. The experiment was repeated 4 times for every imposed condition.\nLinear regressions were conducted with the obtained data. […] The kinetic constant of the reaction was the parameter used to compare the oxidative capacity of the different oxidation conditions in the method of the invention."}, "[2]": {"conditions": "in water; cited from earlier work"}, "[3]": {"conditions": "5% H2O2, 10g/L TiO2 (aeroxide P90), pH=3 (HCl), 0.025 mM Rhodamine B; reaction order 0.66", "quoted_text": "The accuracy of the reaction order was enhanced to be adjusted to 0.66 in this case, in order to improve the graph's sensitivity. The absorbance of Rhodamine B present in the mixture at each time point was employed to determine rate of oxidation. The first mixture was supplied with oxygen throughout the reaction at regular intervals by extracting samples and reintroducing them into the reaction mixture. The second mixture was not supplied with oxygen throughout the reaction, i.e. only samples of the initial and final mixture were taken."}, "[4]": {"conditions": "0.025 mM Rhodamine B, 30g/L of TiO2 (aeroxide P90), 5% H2O2 solution"}, "[5]": {"conditions": "0.025 mM Rhodamine B, 30g/L of TiO2 (aeroxide P90), 5% H2O2 solution, pH 2.0"}, "[6]": {"conditions": "0.025 mM Rhodamine B, 30g/L of TiO2 (aeroxide P90), 5% H2O2 solution, pH 2.0, absence of light"}, "[7]": {"conditions": "0.050 mM Rhodamine B, 10g/L of TiO2 (aeroxide P90), 5% H2O2 solution, pH of 2"}},
  "data": [
    {"smiles": "O=CO", "note": "[Formic, formic acid, reference compound]", "values": [
      {"measurement": "Rate constants for degradation kinetics (k544/min^-1)", "setting": "[1]; pH 2", "value": "0.0263 ± 0.0035", "unit": "min⁻¹"}
    ]},
    {"smiles": "Cl", "note": "[Hydrochloric, hydrochloric acid]", "values": [
      {"measurement": "Rate constants for degradation kinetics (k554/min^-1), pH 1.5", "setting": "[1]", "value": "0.3370±0.0990", "unit": "min^-1"},
      {"measurement": "Rate constants for degradation kinetics (k554/min^-1), pH 2.0", "setting": "[1]; pH 2", "value": "0.1260±0.0173", "unit": "min^-1"}
    ]},
    {"smiles": "[O-][Cl+3]([O-])([O-])O", "note": "[Perchloric, perchloric acid]", "values": [
      {"measurement": "Rate constants for degradation kinetics (k554/min^-1), pH 1.5", "setting": "[1]; [4]", "value": "0.3550±0.1180", "unit": "min^-1"},
      {"measurement": "Rate constants for degradation kinetics (k554/min^-1), pH 2.0", "setting": "[1]; [5]", "value": "0.1194±0.0095", "unit": "min^-1"},
      {"measurement": "Rate constants for degradation kinetics (k544/min^-1)", "setting": "[1]; [6]", "value": "0.1194 ± 0.0095", "unit": "min⁻¹"},
      {"measurement": "Rate constants for degradation kinetics (k544/min^-1)", "setting": "[1]; [7]", "value": "0.0318 ± 0.0021", "unit": "min⁻¹"}
    ]},
    {"smiles": "O=S(=O)(O)O", "note": "[Sulfuric, sulfuric acid]", "values": [
      {"measurement": "Rate constants for degradation kinetics (k554/min^-1), pH 1.5", "setting": "[1]; [4]", "value": "0.2360±0.0430", "unit": "min^-1"},
      {"measurement": "Rate constants for degradation kinetics (k554/min^-1), pH 2.0", "setting": "[1]; [5]", "value": "0.1124±0.0112", "unit": "min^-1"},
      {"measurement": "Rate constants for degradation kinetics (k544/min^-1)", "setting": "[1]; [6]", "value": "0.1124 ± 0.0112", "unit": "min⁻¹"},
      {"measurement": "Rate constants for degradation kinetics (k544/min^-1)", "setting": "[1]; [7]", "value": "0.0293 ± 0.0021", "unit": "min⁻¹"}
    ]},
    {"smiles": "[O]=[Cr](=[O])([OH])[OH]", "note": "[chromic acid]", "values": [
      {"measurement": "pKa", "setting": "[2]", "value": -0.1}
    ]},
    {"smiles": "O=O", "note": "[oxygen]", "values": [
      {"measurement": "kinetic constant greater than that of the reaction not supplied with oxygen", "setting": "[3]", "value": "about 15%"}
    ]},
    {"smiles": "O=S(O)O", "note": "[sulfurous acid]", "values": [
      {"measurement": "pKa", "setting": "[2]", "value": 1.9}
    ]},
    {"smiles": "O=C(O)C(F)(F)F", "note": "[trifluoroacetic acid]", "values": [
      {"measurement": "pKa", "setting": "[2]", "value": -0.25}
    ]}
  ]
}
